Assay results taken from US9096615B2, “Bridged bicyclic amino thiazine dioxide compounds as inhibitors of beta-secretase and methods of use thereof” (AMGEN INC., priority 2013, dated 2015).
Each block holds one compound with its values, some of them ahead of it.

Experiments:
[1] = test system: Aβ40 in conditioned medium of cells stably expressing Amyloid Precursor Protein (APP); test: In vitro BACE cell-based assay (HEK cell assay, Aβ40 sandwich ELISA); conditions: Homo sapiens, HEK293; average IC50; read-out: BACE1 cell assay IC50
Procedure, shortened: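 APP-stable cells were cultured 24 h at 37 °C, then given compound as 10-point dose-response (top 100 μM or 10 μM; 0.1% DMSO final) for 24 h. Aβ40 in conditioned medium was measured by sandwich ELISA (pAb40 capture, biotinylated 6E10 detection, Eu time-resolved fluorescence). IC50 from percent inhibition versus concentration.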

Cathepsin D (Cat D) = target: T1, Cathepsin D (Cat D) (Homo sapiens, UniProt P07339); test: In vitro enzymatic Cathepsin D (Cat D) FRET assay; type: biochemical; conditions: average IC50; first procedure; read-out: CatD IC50
T1 construct: made in house; host or cells: CHO cells
Procedure, shortened: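 Recombinant human Cat D expressed in CHO cells, 9 nM, pre-incubated 1 h with inhibitor in 0.05 M citrate pH 3.5, 10% DMSO, 5 mM CHAPS. Reaction started with 20 nM FRET peptide substrate, run 1 h, stopped with Tris to neutral pH; fluorescence read at ex 500/em 580 nm.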

human Bace2 protein = target: T2, human Bace2 protein (Homo sapiens, UniProt Q9Y5Z0); test: In vitro enzymatic BACE2 FRET assay; type: biochemical; conditions: average IC50; read-out: BACE2 Enzyme assay IC50
T2 construct: V5 (C); 6-His (C)
T2 sequence (Q9Y5Z0 63-518): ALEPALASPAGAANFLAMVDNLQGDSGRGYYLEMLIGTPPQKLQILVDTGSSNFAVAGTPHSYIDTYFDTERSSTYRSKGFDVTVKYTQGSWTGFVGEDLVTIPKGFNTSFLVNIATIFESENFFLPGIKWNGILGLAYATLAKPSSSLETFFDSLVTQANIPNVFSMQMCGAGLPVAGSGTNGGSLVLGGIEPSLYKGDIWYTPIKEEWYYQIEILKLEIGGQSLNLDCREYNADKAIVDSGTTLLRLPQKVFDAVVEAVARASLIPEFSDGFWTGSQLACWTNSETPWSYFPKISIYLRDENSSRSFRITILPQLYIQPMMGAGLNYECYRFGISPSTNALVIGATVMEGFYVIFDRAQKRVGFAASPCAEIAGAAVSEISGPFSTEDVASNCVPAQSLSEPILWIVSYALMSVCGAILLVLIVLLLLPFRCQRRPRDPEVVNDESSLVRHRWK
Description: In Vitro Enzymatic BACE2 FRET (Fluorescence Resonance Energy Transfer) Assay
Enzyme Assay Data in the Table 3
The assay buffer used in this screen is 0.05 M acetate, pH 4.2, 10% DMSO final, 100 uM genapol (which is a nonionic detergent, below its Critical Micelle Concentration). The Beta Secretase2 enzyme (human Bace2 protein with C-terminal V5 and 6-His tag; 0.2 nM) is pre-incubated for one hour with inhibitors, typically in about 1 uL of DMSO according to a serial dilution, are added thereto. This assay is effectively started by the addition of FRET substrate (50 nM) and the combination is incubated for one hour. Final assay concentration of about 0.64 nM. The FRET assay is terminated with by addition of Tris buffer, which raises the pH to neutrality, and the fluorescence is determined. The FRET substrate is a peptide with commercially available fluorophore and quencher, on opposite sides of the BACE cleavage site. Proteolytic cleavage of the FRET substrate releases quenching of fluorescence (excitation 488 nm and […]).

BACE1 = BACE1 (Homo sapiens, UniProt P56817); test: In vitro enzymatic BACE FRET assay; type: biochemical; conditions: average IC50; read-out: BACE1 Enzyme assay IC50
Procedure, shortened: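 BACE (0.2 nM) pre-incubated 1 h with serially diluted inhibitor in 0.05 M acetate pH 4.2, 10% DMSO, 100 uM genapol; 50 nM FRET peptide substrate added, 1 h incubation. Stopped with Tris to neutral pH; fluorescence read (ex 488, […]).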

T1 sequence (P07339 65-412, species assumed): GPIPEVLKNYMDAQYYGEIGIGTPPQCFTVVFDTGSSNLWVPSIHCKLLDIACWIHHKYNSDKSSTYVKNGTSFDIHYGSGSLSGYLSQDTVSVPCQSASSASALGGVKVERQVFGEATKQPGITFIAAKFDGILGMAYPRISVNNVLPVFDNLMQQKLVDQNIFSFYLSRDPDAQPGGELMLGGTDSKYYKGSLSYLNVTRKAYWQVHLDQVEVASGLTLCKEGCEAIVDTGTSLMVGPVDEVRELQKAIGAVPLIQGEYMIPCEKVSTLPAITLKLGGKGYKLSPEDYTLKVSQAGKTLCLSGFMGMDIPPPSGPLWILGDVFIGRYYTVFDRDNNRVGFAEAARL
Chain of BACE1 (P56817 46-501, species assumed): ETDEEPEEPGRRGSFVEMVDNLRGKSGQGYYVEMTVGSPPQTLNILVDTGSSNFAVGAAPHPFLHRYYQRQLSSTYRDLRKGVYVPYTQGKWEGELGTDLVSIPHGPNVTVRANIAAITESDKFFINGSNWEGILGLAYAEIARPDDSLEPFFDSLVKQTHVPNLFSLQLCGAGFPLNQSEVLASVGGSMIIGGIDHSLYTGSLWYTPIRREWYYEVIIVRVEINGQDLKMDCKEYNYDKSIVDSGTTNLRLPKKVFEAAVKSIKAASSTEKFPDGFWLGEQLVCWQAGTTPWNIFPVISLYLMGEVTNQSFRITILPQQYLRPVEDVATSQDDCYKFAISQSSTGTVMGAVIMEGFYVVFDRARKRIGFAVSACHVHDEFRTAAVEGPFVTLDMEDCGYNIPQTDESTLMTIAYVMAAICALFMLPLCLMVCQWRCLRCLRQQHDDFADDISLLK

Structure (SMILES): Cc1cc(Cl)cnc1C(=O)Nc1ccc(F)c([C@@]2(CF)N=C(N)[C@@]3(C)CC[C@@H]2S3(=O)=O)c1 (single isomer, unassigned) [Example 118]
IC50 [1]: 0.062 µM
IC50 (Cathepsin D (Cat D)): > 400 µM
IC50 (human Bace2 protein): 0.002 µM
IC50 (BACE1): 0.017 µM

Structure (SMILES): CC(C)(C)C#CCOc1cnc(C(=O)Nc2ccc(F)c([C@@]3(C)N=C(N)C4(CF)CCC3S4(=O)=O)c2)cn1 (stereo in doubt) [Example 38, N-(3-((1S,2R,5R)-4-Amino-5-(fluoromethyl)-2-methyl-8,8-dioxido-8-thia-3-azabicyclo[3.2.1]oct-3-en-2-yl)-4-fluorophenyl)-5-((4,4-dimethylpent-2-yn-1-yl)oxy)pyrazine-2-carboxamide]
IC50 [1]: 0.031 µM
IC50 (Cathepsin D (Cat D)): 437 µM
IC50 (human Bace2 protein): 0.011 µM
IC50 (BACE1): 0.004 µM

Structure (SMILES): C#CC(C)(C)Oc1cnc(C(=O)Nc2ccc(F)c([C@@]3(C)N=C(N)[C@@]4(CF)CC[C@@H]3S4(=O)=O)c2)cn1 [Example 44, N-(3-((1S,2R,5R)-4-amino-5-(fluoromethyl)-2-methyl-8,8-dioxido-8-thia-3-azabicyclo[3.2.1]oct-3-en-2-yl)-4-fluorophenyl)-5-((1,1-dimethyl-2-propyn-1-yl)oxy)-2-pyrazinecarboxamide]
IC50 [1]: 0.153 µM
IC50 (Cathepsin D (Cat D)): > 400 µM
IC50 (human Bace2 protein): 0.283 µM
IC50 (BACE1): 0.034 µM

Structure (SMILES): C#C[C@H](C)Oc1cnc(C(=O)Nc2ccc(F)c([C@@]3(C)N=C(N)[C@@]4(CF)CC[C@@H]3S4(=O)=O)c2)cn1 [Example 45, N-(3-((1S,2R,5R)-4-amino-5-(fluoromethyl)-2-methyl-8,8-dioxido-8-thia-3-azabicyclo[3.2.1]oct-3-en-2-yl)-4-fluorophenyl)-5-(((1S)-1-methyl-2-propyn-1-yl)oxy)-2-pyrazinecarboxamide]
IC50 [1]: 0.003 µM
IC50 (Cathepsin D (Cat D)): 596 µM
IC50 (human Bace2 protein): 0.019 µM
IC50 (BACE1): 0.003 µM

Structure (SMILES): C#CCOc1cnc2c(Nc3ccc(F)c([C@@]4(C)N=C(N)[C@@]5(CF)CC[C@@H]4S5(=O)=O)c3)nccc2n1 [Example 46, N-(3-((1S,2R,5R)-4-amino-5-(fluoromethyl)-2-methyl-8,8-dioxido-8-thia-3-azabicyclo[3.2.1]oct-3-en-2-yl)-4-fluorophenyl)-2-(2-propyn-1-yloxy)pyrido[3,4-b]pyrazin-5-amine]
IC50 [1]: 0.005 µM
IC50 (Cathepsin D (Cat D)): 1000 µM
IC50 (human Bace2 protein): 0.009 µM
IC50 (BACE1): 0.001 µM

Structure (SMILES): C[C@]1(c2cc(Nc3ncnc4cc(Br)cnc34)ccc2F)N=C(N)[C@@]2(CF)CC[C@@H]1S2(=O)=O [Example 47, N-(3-((1S,2R,5R)-4-amino-5-(fluoromethyl)-2-methyl-8,8-dioxido-8-thia-3-azabicyclo[3.2.1]oct-3-en-2-yl)-4-fluorophenyl)-7-bromopyrido[3,2-d]pyrimidin-4-amine]
IC50 [1]: 0.036 µM
IC50 (Cathepsin D (Cat D)): 174 µM
IC50 (human Bace2 protein): 0.002 µM
IC50 (BACE1): 0.007 µM

Structure (SMILES): C[C@]1(c2cc(Nc3ncc(F)c4cc(C#N)cnc34)ccc2F)N=C(N)[C@@]2(CF)CC[C@@H]1S2(=O)=O [Example 53, 8-((3-((1S,2R,5R)-4-amino-5-(fluoromethyl)-2-methyl-8,8-dioxido-8-thia-3-azabicyclo[3.2.1]oct-3-en-2-yl)-4-fluorophenyl)amino)-5-fluoro-1,7-naphthyridine-3-carbonitrile]
IC50 [1]: 0.038 µM
IC50 (Cathepsin D (Cat D)): > 14.8 µM
IC50 (human Bace2 protein): 0.002 µM
IC50 (BACE1): 0.003 µM

Structure (SMILES): C#CCOc1cnc(C(=O)Nc2ccc(F)c([C@@]3(C)N=C(N)[C@@]4(CF)CC[C@@H]3S4(=O)=O)c2)c(Cl)c1 [Example 60, N-(3-((1S,2R,5R)-4-amino-5-(fluoromethyl)-2-methyl-8,8-dioxido-8-thia-3-azabicyclo[3.2.1]oct-3-en-2-yl)-4-fluorophenyl)-3-chloro-5-(2-propyn-1-yloxy)-2-pyridinecarboxamide]
IC50 [1]: 0.008 µM
IC50 (Cathepsin D (Cat D)): 953 µM
IC50 (human Bace2 protein): 0.01 µM
IC50 (BACE1): 0.001 µM

Structure (SMILES): CC#CCOc1cnc2c(Nc3ccc(F)c([C@@]4(C)N=C(N)[C@@]5(C)CC[C@@H]4S5(=O)=O)c3)nccc2n1 [Example 62, N-(3-((1S,2R,5R)-4-amino-2,5-dimethyl-8,8-dioxido-8-thia-3-azabicyclo[3.2.1]oct-3-en-2-yl)-4-fluorophenyl)-2-(2-butyn-1-yloxy)pyrido[3,4-b]pyrazin-5-amine]
IC50 [1]: 0.001 µM
IC50 (Cathepsin D (Cat D)): 124 µM
IC50 (human Bace2 protein): 0.007 µM
IC50 (BACE1): 0.001 µM

Structure (SMILES): CC#C[C@@H](C)Oc1cnc(C(=O)Nc2ccc(F)c([C@@]3(C)N=C(N)[C@@]4(C)CC[C@@H]3S4(=O)=O)c2)cn1 [Example 70, N-(3-((1S,2R,5R)-4-amino-2,5-dimethyl-8,8-dioxido-8-thia-3-azabicyclo[3.2.1]oct-3-en-2-yl)-4-fluorophenyl)-5-(((1R)-1-methyl-2-butyn-1-yl)oxy)-2-pyrazinecarboxamide]
IC50 [1]: 0.007 µM
IC50 (Cathepsin D (Cat D)): > 400 µM
IC50 (human Bace2 protein): 0.05 µM
IC50 (BACE1): 0.014 µM

Now from value to compound:

IC50 [1]: 0.007 µM
IC50 (Cathepsin D (Cat D)): > 400 µM
IC50 (human Bace2 protein): 0.014 µM
IC50 (BACE1): 0.009 µM
Structure (SMILES): COc1cnc(C(=O)Nc2ccc(F)c([C@@]3(C)N=C(N)[C@@]4(CF)CC[C@@H]3S4(=O)=O)c2)c(F)c1 [Example 43, N-(3-((1S,2R,5R)-4-amino-5-(fluoromethyl)-2-methyl-8,8-dioxido-8-thia-3-azabicyclo[3.2.1]oct-3-en-2-yl)-4-fluorophenyl)-3-fluoro-5-methoxy-2-pyridinecarboxamide]

IC50 [1]: 0.09 µM
IC50 (Cathepsin D (Cat D)): 755 µM
IC50 (human Bace2 protein): 0.002 µM
IC50 (BACE1): 0.002 µM
Structure (SMILES): C[C@]1(c2cc(Nc3ncc(F)c4cc(Cl)cnc34)ccc2F)N=C(N)[C@@]2(CF)CC[C@@H]1S2(=O)=O [Example 54, N-(3-((1S,2R,5R)-4-amino-5-(fluoromethyl)-2-methyl-8,8-dioxido-8-thia-3-azabicyclo[3.2.1]oct-3-en-2-yl)-4-fluorophenyl)-3-chloro-5-fluoro-1,7-naphthyridin-8-amine]

IC50 [1]: 0.351 µM
IC50 (Cathepsin D (Cat D)): > 133 µM
IC50 (human Bace2 protein): 0.024 µM
IC50 (BACE1): 0.018 µM
Structure (SMILES): C[C@]1(c2cc(Nc3nccc4nc(C(F)(F)F)cnc34)ccc2F)N=C(N)[C@@]2(CF)CC[C@@H]1S2(=O)=O [Example 55, N-(3-((1S,2R,5R)-4-amino-5-(fluoromethyl)-2-methyl-8,8-dioxido-8-thia-3-azabicyclo[3.2.1]oct-3-en-2-yl)-4-fluorophenyl)-2-(trifluoromethyl)pyrido[3,4-b]pyrazin-5-amine]

IC50 [1]: 0.048 µM
IC50 (Cathepsin D (Cat D)): > 400 µM
IC50 (human Bace2 protein): 0.076 µM
IC50 (BACE1): 0.003 µM
Structure (SMILES): Cc1nc(OCC(F)(F)F)cnc1C(=O)Nc1ccc(F)c([C@@]2(C)N=C(N)[C@@]3(CF)CC[C@@H]2S3(=O)=O)c1 [Example 57, N-(3-((1S,2R,5R)-4-amino-5-(fluoromethyl)-2-methyl-8,8-dioxido-8-thia-3-azabicyclo[3.2.1]oct-3-en-2-yl)-4-fluorophenyl)-3-methyl-5-(2,2,2-trifluoroethoxy)-2-pyrazinecarboxamide]

IC50 [1]: 0.046 µM
IC50 (Cathepsin D (Cat D)): 342 µM
IC50 (human Bace2 protein): 0.002 µM
IC50 (BACE1): 0.001 µM
Structure (SMILES): C[C@]1(c2cc(Nc3nccc4cc(Cl)cnc34)ccc2F)N=C(N)[C@@]2(CF)CC[C@@H]1S2(=O)=O [Example 58, N-(3-((1S,2R,5R)-4-amino-5-(fluoromethyl)-2-methyl-8,8-dioxido-8-thia-3-azabicyclo[3.2.1]oct-3-en-2-yl)-4-fluorophenyl)-3-chloro-1,7-naphthyridin-8-amine]

IC50 [1]: 0.002 µM
IC50 (Cathepsin D (Cat D)): 1180 µM
IC50 (human Bace2 protein): 0.321 µM
IC50 (BACE1): 0.003 µM
Structure (SMILES): CC#CCOc1cnc2c(Nc3ccc(F)c([C@@]4(C)N=C(N)[C@]5(C)CC[C@H]4S5(=O)=O)c3)nccc2n1 [Example 63, N-(3-((1R,2R,5S)-4-amino-2,5-dimethyl-8,8-dioxido-8-thia-3-azabicyclo[3.2.1]oct-3-en-2-yl)-4-fluorophenyl)-2-(2-butyn-1-yloxy)pyrido[3,4-b]pyrazin-5-amine]
